Source: patent US20090163521A1, “Novel Pyrazolopyrimidinone Derivatives” (ORCHID RESEARCH LABORATORIES LIMITED, priority 2005, published 2009)

Experiments:
TNF-α = test: In vitro measurement of TNF-α in LPS-stimulated human PBMC; type: cell-based; settings: LPS 1 μg/ml, 18 h
Procedure: This assay determines the effect of test compounds on the production of TNF α in human Peripheral Blood Mononuclear Cells (PBMC). Compounds were tested for their ability to inhibit the activity of TNF α in human PBMC. PBMC were isolated from blood (from healthy volunteers) using BD Vacutainer CPT™ (Cell preparation tube, BD Bio Science) and suspended in RPMI medium (Physiol. Res. 52: 593-598, 2003). The test compounds were pre-incubated with PBMC (0.5 million/incubation well) for 15 minutes at 37° C. and then stimulated with Lipopolysaccharide (Escherichia coli: B4; 1 μg/ml) for 18 h at 37° C. in 5% CO2. The levels of TNFα in cell culture medium were estimated using enzyme linked Immunosorbent assay performed in a 96 well format as per the procedure of the manufacturer (Cayman Chemical, Ann Arbor, USA).

Rat Paw Edema model = test: Carrageenan induced paw edema test in rat; type: in vivo; settings: 5 mg/kg b. wt., p.o.; 3 hours after carrageenan
Procedure: The carrageenan paw edema test was performed as described by Winter et al (Proc. Soc. Exp. Biol. Med, 111, 544, 1962). Male wistar rats were selected with body weights equivalent within each group. The rats were fasted for eighteen hours with free access to water. The rats were dosed orally with the test compound suspended in vehicle containing 0.25% carboxymethylcellulose and 0.5% Tween 80. The control rats were administered with vehicle alone. After an hour, the rats were injected with 0.1 ml of 1% Carrageenan solution in 0.9% saline into the sub-plantar surface of the right hind paw. Paw volume was measured using digital plethysmograph before and after 3 hours of carrageenan injection. The average of foot swelling in drug treated animals was compared with that of control animals. Anti-inflammatory activity was expressed as the percentage inhibition of edema compared with control group [Arzneim-Forsch/Drug Res., 43 (1), 1, 44-50, 1993; Ottemess and Bliven, Laboratory Models for Testing NSAIDs, In Non-Steroidal Anti-Inflammatory Drugs, (J. Lombardino, ed. 1985)].

With CSc1ccc(-c2nc3[nH]nc(N)c3c(=O)n2-c2ccc(C)c(C)c2)cc1 [Example 2, 3-amino-5-(3,4-dimethylphenyl)-6-[4-(methylthio)phenyl]-1,5-dihydro-4H-pyrazolo[3,4-d]pyrimidin-4-one] the inhibition at 10 µM (TNF-α) was 53.4% and the “Rat Paw Edema model % Inhibition” value (Rat Paw Edema model) was 30.52 ± 10.3%.
